# From ChEMBL document CHEMBL3885861, “Open TG-GATES”
# Species on record: Rattus norvegicus
# Assay: Open TG-GATES - Regimen: Daily Repeat
# Assay type: toxicity, organism-based, Sprague-Dawley
# Design: regimen Daily Repeat, gender Male, age 6 weeks
# Details: in vivo, po, 3 mg/kg, route gavage, dose level Low; for APTT / Bas / Eos / Fbg / Hb / Ht / Lym / MCH / MCHC / MCV / Mono / Neu / PT / Plat / RBC / Ret / WBC: tissue Blood; for KIDNEY_L / KIDNEY_R / KIDNEY_TOTAL: tissue Kidney; for LIVER: tissue Liver; for A/G / ALP / ALT / AST / BUN / CRE / Ca / Cl / DBIL / GLC / IP / K / LDH / Na / PL / RALB / TBIL / TC / TG / TP / gamma-GTP: tissue Plasma
smiles,measurement,setting,value
Cn1cnc([N+](=O)[O-])c1Sc1ncnc2nc[nH]c12 [AZATHIOPRINE],TERMINAL_BW,"72 h, time 3 day",215.2 g
same,APTT,"72 h, time 3 day",20.9 s
same,Bas,"72 h, time 3 day",0%
same,Eos,"72 h, time 3 day",0.4%
same,Fbg,"72 h, time 3 day",312.4 mg/dL
same,Hb,"72 h, time 3 day",13 g/dL
same,Ht,"72 h, time 3 day",38.6%
same,Lym,"72 h, time 3 day",83.6%
same,MCH,"72 h, time 3 day",22 pg
same,MCHC,"72 h, time 3 day",33.6%
same,MCV,"72 h, time 3 day",65.4 fL
same,Mono,"72 h, time 3 day",1.8%
same,Neu,"72 h, time 3 day",13%
same,PT,"72 h, time 3 day",16.2 s
same,Plat,"72 h, time 3 day",125.6 x10_4/uL
same,RBC,"72 h, time 3 day",590 x10_4/ul
same,Ret,"72 h, time 3 day",7.5%
same,WBC,"72 h, time 3 day",81.3 x10_2/uL
same,KIDNEY_L,"72 h, time 3 day",1 g
same,KIDNEY_R,"72 h, time 3 day",1 g
same,KIDNEY_TOTAL,"72 h, time 3 day",1.9 g
same,LIVER,"72 h, time 3 day",10.5 g
same,A/G,"72 h, time 3 day",1.3
same,ALP,"72 h, time 3 day",1666 IU/L
same,ALT,"72 h, time 3 day",45 IU/L
same,AST,"72 h, time 3 day",73.2 IU/L
same,BUN,"72 h, time 3 day",17.6 mg/dL
same,CRE,"72 h, time 3 day",0.1 mg/dL
same,Ca,"72 h, time 3 day",11.3 mg/dL
same,Cl,"72 h, time 3 day",106.6 meq/L
same,DBIL,"72 h, time 3 day",0 mg/dL
same,GLC,"72 h, time 3 day",188.8 mg/dL
same,IP,"72 h, time 3 day",6.7 mg/dL
same,K,"72 h, time 3 day",4.4 meq/L
same,LDH,"72 h, time 3 day",192.8 IU/L
same,Na,"72 h, time 3 day",143.4 meq/L
same,PL,"72 h, time 3 day",142.8 mg/dL
same,RALB,"72 h, time 3 day",3.1 g/dL
same,TBIL,"72 h, time 3 day",0.008 mg/dL
same,TC,"72 h, time 3 day",73.8 mg/dL
same,TG,"72 h, time 3 day",85 mg/dL
same,TP,"72 h, time 3 day",5.6 g/dL
same,gamma-GTP,"72 h, time 3 day",1 IU/L
same,TERMINAL_BW,"[…], time 7 day",233.9 g
same,TERMINAL_BW,"[…], time 14 day",269.8 g
same,TERMINAL_BW,"[…], time 28 day",343.6 g
same,APTT,"[…], time 7 day",21.4 s
same,Bas,"[…], time 7 day",0%
same,Eos,"[…], time 7 day",1%
same,Fbg,"[…], time 7 day",312.6 mg/dL
same,Hb,"[…], time 7 day",14 g/dL
same,Ht,"[…], time 7 day",40.2%
same,Lym,"[…], time 7 day",79%
same,MCH,"[…], time 7 day",21.4 pg
same,MCHC,"[…], time 7 day",34.9%
same,MCV,"[…], time 7 day",61.3 fL
same,Mono,"[…], time 7 day",2.2%
same,Neu,"[…], time 7 day",17%
same,PT,"[…], time 7 day",15.8 s
same,Plat,"[…], time 7 day",115.5 x10_4/uL
same,RBC,"[…], time 7 day",655.8 x10_4/ul
same,Ret,"[…], time 7 day",5.5%
same,WBC,"[…], time 7 day",121.2 x10_2/uL
same,APTT,"[…], time 14 day",22.5 s
same,Bas,"[…], time 14 day",0%
same,Eos,"[…], time 14 day",0.8%
same,Fbg,"[…], time 14 day",325.2 mg/dL
same,Hb,"[…], time 14 day",14.6 g/dL
same,Ht,"[…], time 14 day",41%
same,Lym,"[…], time 14 day",77.4%
same,MCH,"[…], time 14 day",21.4 pg
same,MCHC,"[…], time 14 day",35.7%
same,MCV,"[…], time 14 day",59.9 fL
same,Mono,"[…], time 14 day",1.8%
same,Neu,"[…], time 14 day",19%
same,PT,"[…], time 14 day",16.3 s
same,Plat,"[…], time 14 day",113.2 x10_4/uL
same,RBC,"[…], time 14 day",684.8 x10_4/ul
same,Ret,"[…], time 14 day",3.6%
same,WBC,"[…], time 14 day",82.1 x10_2/uL
same,APTT,"[…], time 28 day",24.6 s
same,Bas,"[…], time 28 day",0%
same,Eos,"[…], time 28 day",1%
same,Fbg,"[…], time 28 day",302.2 mg/dL
same,Hb,"[…], time 28 day",14.6 g/dL
same,Ht,"[…], time 28 day",42.3%
same,Lym,"[…], time 28 day",84.6%
same,MCH,"[…], time 28 day",19.4 pg
same,MCHC,"[…], time 28 day",34.4%
same,MCV,"[…], time 28 day",56.4 fL
same,Mono,"[…], time 28 day",1.6%
same,Neu,"[…], time 28 day",12%
same,PT,"[…], time 28 day",16.5 s
same,Plat,"[…], time 28 day",116.9 x10_4/uL
same,RBC,"[…], time 28 day",749.8 x10_4/ul
same,Ret,"[…], time 28 day",2.7%
same,WBC,"[…], time 28 day",116.8 x10_2/uL
same,KIDNEY_L,"[…], time 7 day",1 g
same,KIDNEY_R,"[…], time 7 day",1 g
same,KIDNEY_TOTAL,"[…], time 7 day",2 g
same,KIDNEY_L,"[…], time 14 day",1.1 g
same,KIDNEY_R,"[…], time 14 day",1.1 g
same,KIDNEY_TOTAL,"[…], time 14 day",2.2 g
same,KIDNEY_L,"[…], time 28 day",1.3 g
same,KIDNEY_R,"[…], time 28 day",1.3 g
same,KIDNEY_TOTAL,"[…], time 28 day",2.5 g
same,LIVER,"[…], time 7 day",10.6 g
same,LIVER,"[…], time 14 day",11.4 g
same,LIVER,"[…], time 28 day",14.1 g
same,A/G,"[…], time 7 day",1.2
same,ALP,"[…], time 7 day",1762.2 IU/L
same,ALT,"[…], time 7 day",44.2 IU/L
same,AST,"[…], time 7 day",71.2 IU/L
same,BUN,"[…], time 7 day",19.8 mg/dL
same,CRE,"[…], time 7 day",0.1 mg/dL
same,Ca,"[…], time 7 day",10.5 mg/dL
same,Cl,"[…], time 7 day",107.6 meq/L
same,DBIL,"[…], time 7 day",0 mg/dL
same,GLC,"[…], time 7 day",201 mg/dL
same,IP,"[…], time 7 day",7 mg/dL
same,K,"[…], time 7 day",4.1 meq/L
same,LDH,"[…], time 7 day",232 IU/L
same,Na,"[…], time 7 day",143.2 meq/L
same,PL,"[…], time 7 day",151.2 mg/dL
same,RALB,"[…], time 7 day",3.1 g/dL
same,TBIL,"[…], time 7 day",0.006 mg/dL
same,TC,"[…], time 7 day",74.8 mg/dL
same,TG,"[…], time 7 day",117.4 mg/dL
same,TP,"[…], time 7 day",5.7 g/dL
same,gamma-GTP,"[…], time 7 day",1.2 IU/L
same,A/G,"[…], time 14 day",1.1
same,ALP,"[…], time 14 day",1472 IU/L
same,ALT,"[…], time 14 day",34.6 IU/L
same,AST,"[…], time 14 day",61.4 IU/L
same,BUN,"[…], time 14 day",17.4 mg/dL
same,CRE,"[…], time 14 day",0.2 mg/dL
same,Ca,"[…], time 14 day",10.7 mg/dL
same,Cl,"[…], time 14 day",108 meq/L
same,DBIL,"[…], time 14 day",0 mg/dL
same,GLC,"[…], time 14 day",185.4 mg/dL
same,IP,"[…], time 14 day",6.1 mg/dL
same,K,"[…], time 14 day",4.2 meq/L
same,LDH,"[…], time 14 day",145 IU/L
same,Na,"[…], time 14 day",143.8 meq/L
same,PL,"[…], time 14 day",143.2 mg/dL
same,RALB,"[…], time 14 day",3.1 g/dL
same,TBIL,"[…], time 14 day",0.006 mg/dL
same,TC,"[…], time 14 day",74.2 mg/dL
same,TG,"[…], time 14 day",116.2 mg/dL
same,TP,"[…], time 14 day",5.9 g/dL
same,gamma-GTP,"[…], time 14 day",1 IU/L
same,A/G,"[…], time 28 day",1.1
same,ALP,"[…], time 28 day",1129.8 IU/L
same,ALT,"[…], time 28 day",46.2 IU/L
same,AST,"[…], time 28 day",71.2 IU/L
same,BUN,"[…], time 28 day",19.2 mg/dL
same,CRE,"[…], time 28 day",0.2 mg/dL
same,Ca,"[…], time 28 day",10.6 mg/dL
same,Cl,"[…], time 28 day",107.8 meq/L
same,DBIL,"[…], time 28 day",0.002 mg/dL
same,GLC,"[…], time 28 day",185 mg/dL
same,IP,"[…], time 28 day",5.6 mg/dL
same,K,"[…], time 28 day",3.9 meq/L
same,LDH,"[…], time 28 day",181 IU/L
same,Na,"[…], time 28 day",141.8 meq/L
same,PL,"[…], time 28 day",156.8 mg/dL
same,RALB,"[…], time 28 day",3.2 g/dL
same,TBIL,"[…], time 28 day",0.01 mg/dL
same,TC,"[…], time 28 day",79 mg/dL
same,TG,"[…], time 28 day",110.6 mg/dL
same,TP,"[…], time 28 day",6.1 g/dL
same,gamma-GTP,"[…], time 28 day",1.2 IU/L
